Laboratory results published in US5451506A, “Oncostatin M and novel compositions having anti-neoplastic activity” (Oncogen Limited Partnership, priority 1993, dated 1995).

T1: Oncostatin M receptor on A375 or A549 cells (Homo sapiens, UniProt P40189+Q99650)
T1 construct: endogenous in cells; host or cells: A375 or A549 cells (intact monolayers)
T1 sequence (Q99650 28-979): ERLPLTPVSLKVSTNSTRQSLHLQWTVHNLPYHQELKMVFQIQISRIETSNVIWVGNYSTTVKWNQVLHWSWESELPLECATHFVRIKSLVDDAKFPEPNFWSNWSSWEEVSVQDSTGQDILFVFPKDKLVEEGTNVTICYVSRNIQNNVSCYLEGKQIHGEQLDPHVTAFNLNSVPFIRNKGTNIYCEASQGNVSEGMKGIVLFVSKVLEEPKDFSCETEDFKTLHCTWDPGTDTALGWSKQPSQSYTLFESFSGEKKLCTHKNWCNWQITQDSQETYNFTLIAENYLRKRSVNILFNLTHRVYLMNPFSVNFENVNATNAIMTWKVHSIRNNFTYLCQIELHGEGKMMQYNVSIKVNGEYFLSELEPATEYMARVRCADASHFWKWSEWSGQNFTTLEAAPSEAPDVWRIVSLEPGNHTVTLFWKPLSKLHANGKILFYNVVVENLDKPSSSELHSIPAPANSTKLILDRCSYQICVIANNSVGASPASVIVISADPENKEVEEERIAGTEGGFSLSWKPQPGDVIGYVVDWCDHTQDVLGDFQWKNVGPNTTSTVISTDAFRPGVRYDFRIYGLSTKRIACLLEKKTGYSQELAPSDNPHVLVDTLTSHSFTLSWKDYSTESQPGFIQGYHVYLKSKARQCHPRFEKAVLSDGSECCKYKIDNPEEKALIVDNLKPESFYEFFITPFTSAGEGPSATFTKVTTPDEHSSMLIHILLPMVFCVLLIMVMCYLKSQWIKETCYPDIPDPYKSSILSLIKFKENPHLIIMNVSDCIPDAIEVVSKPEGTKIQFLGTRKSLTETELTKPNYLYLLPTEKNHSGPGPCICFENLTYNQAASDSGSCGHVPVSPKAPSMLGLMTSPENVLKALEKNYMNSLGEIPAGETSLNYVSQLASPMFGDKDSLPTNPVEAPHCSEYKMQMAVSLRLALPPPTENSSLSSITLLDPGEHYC
T1 sequence (P40189 23-918): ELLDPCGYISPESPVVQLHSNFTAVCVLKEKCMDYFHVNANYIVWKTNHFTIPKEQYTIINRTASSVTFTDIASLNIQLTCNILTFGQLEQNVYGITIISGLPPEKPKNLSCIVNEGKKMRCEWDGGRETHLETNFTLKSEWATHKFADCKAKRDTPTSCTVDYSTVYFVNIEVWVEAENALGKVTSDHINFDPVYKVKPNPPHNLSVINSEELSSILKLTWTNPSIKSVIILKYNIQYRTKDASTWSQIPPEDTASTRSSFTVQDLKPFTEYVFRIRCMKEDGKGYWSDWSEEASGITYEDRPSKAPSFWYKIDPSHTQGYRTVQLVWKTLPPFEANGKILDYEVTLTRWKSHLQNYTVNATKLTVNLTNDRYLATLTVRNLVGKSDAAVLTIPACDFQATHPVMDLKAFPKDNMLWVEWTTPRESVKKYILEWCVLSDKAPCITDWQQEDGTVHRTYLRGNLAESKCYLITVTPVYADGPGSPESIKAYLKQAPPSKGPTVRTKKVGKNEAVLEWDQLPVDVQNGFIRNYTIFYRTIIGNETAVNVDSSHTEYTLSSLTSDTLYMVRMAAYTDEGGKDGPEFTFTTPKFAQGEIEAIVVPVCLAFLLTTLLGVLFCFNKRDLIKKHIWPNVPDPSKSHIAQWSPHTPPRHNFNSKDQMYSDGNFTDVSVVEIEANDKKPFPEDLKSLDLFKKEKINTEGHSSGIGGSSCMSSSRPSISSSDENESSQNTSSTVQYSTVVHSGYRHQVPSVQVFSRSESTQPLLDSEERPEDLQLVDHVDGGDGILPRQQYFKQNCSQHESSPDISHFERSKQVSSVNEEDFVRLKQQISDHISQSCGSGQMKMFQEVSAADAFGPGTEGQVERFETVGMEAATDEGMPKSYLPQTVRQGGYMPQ

B1: PBL-derived Oncostatin M: Oncostatin M isolated from conditioned medium of activated human T-lymphoblasts, approximately 80% pure (protein, UniProt P13725 26-221, looked up)
Oncostatin-M: AAIGSCSKEYRVLLGQLQKQTDLMQDTSRLLDPYIRIQGLDVPKLREHCRERPGAFPSEETLRGLGRRGFLQTLNATLGCVLHRLADLEQRLPKAQDLERSGLNIEDLEKLQMARPNILGLRNNIYCMAQLLDNSDTAEPTKAGRGASQPPTPTPASDAFQRKLEGCRFLHGYHRFMHSVGRVFSKWGESPNRSRR

Assays:
A375 melanoma cells = test: Cell growth modulatory assay using 3H-thymidine incorporation into DNA (GIA); format: cell-based, human; parameters: Observed % Inhibition of 3H-TdR Incorporation: concentration or dose not given beside the values; settings: A375 Cells
Method: (§1) The assays were performed in 96 flat well plates (Costar 3596). Human melanoma cells (A375) (3×10^3 /100 μl) or cells from another cell line of interest were at an appropriate cell density used. Cells in 100 μl growth medium were placed in each well. Three hours later, 100 μl of test sample in growth medium was added to each well. Plates were incubated at 37° C. for 3 days. Then 25 μl (0.5 μCi) of a solution of ^3 H-thymidine (specific activity 27 μCi/μg) was added to each well for the final 6 hours of incubation. The cells were then transferred to glass filter strips using a multiwell harvester (PHD Cell Harvester, Cambridge Technology, Inc.). The filters were transferred to scintillation vials. Two ml of scintillation fluid (ScientiVerse II, Fisher Scientific Co.) was added and the samples counted in a scintillation counter to quantitate ^3 H-thymidine incorporation.

MCF-7 breast tumor cells = test: Inhibition of 3H-TdR incorporation, Oncostatin M and TNF-α; format: cell-based, human; settings: MCF-7 Cells
Method: as §1
Inhibition of ^3 H-TdR incorporation into A375 cells and MCF-7 cells were compared using the assay described in Example 1B, above. The cells were treated with either Oncostatin M alone, TNF-α (Amgen Biologicals, human recombinant TNF-α) alone, or with a combination of Oncostatin M and TNF-α.

[1] = molecular target: T1, Oncostatin M receptor on A375 or A549 cells; test: Specificity of Oncostatin M receptor: competition for binding of 125I-Oncostatin M; settings: competitor 20 μg/ml; 125I-Oncostatin M 30-50 ng/ml
Method: The cell line of interest was plated in 48-well plates at a density of 2×10^5 cells/well and maintained at 37° C. for 16-24 hours before initiation of the assay. Cell monolayers were then washed once with Binding buffer (Linsley et al., Biochemistry (1986) 25:2978-2986). To measure total binding, ^125 I-Oncostatin M was added at concentrations ranging from 0.5-100 ng/ml. To measure non-specific binding, unlabeled Oncostatin M was added simultaneously with the ^125 I-Oncostatin M to replicate plates at a concentration 20- to 100-fold higher than the concentration of ^125 I-Oncostatin M. Binding was allowed to proceed for 2-5 hours at 23°, then the monolayers were washed four times with Binding Buffer, cell-bound radioactivity was solubilized with 1N NaOH and was counted in a gamma counter. Specific binding was calculated by subtracting the non-specific binding from total binding. The dissociation constant (Kd) and binding capacity was determined by Scatchard analysis (Scatchard, Ann. N.Y. Acad. Sci. (1949) 51:660).
The specificity of the Oncostatin M receptor was determined by evaluating the ability of several other polypeptide growth factors to compete for binding of ^125 I-Oncostatin M (at 30-50 ng/ml) to A375 or A549 cells.

WI26 fibroblasts = test: Cell growth modulatory assay using 3H-thymidine incorporation into DNA (GIA); format: cell-based, human; settings: 1000 GIA units/ml
Method: as §1
Human tumor cells (A375 melanoma cells, A549 lung cancer cells, HBT10 neuroblastoma cells, and SK-MEL28 melanoma cells) were seeded at 3×10^3 cells/well and normal fibroblasts (WI26 cells and WI38 cells) at 1.5×10^3 cells/well in 96-well plates. Various concentrations of purified Oncostatin M, obtained from the fraction from the C18^3 column with peak antiproliferative activity against A375 cells were used. The assay was performed as described in Example 1B above.

Mouse L929 cells = test: Effect on mouse L929 cells; format: cell-based; settings: up to 1000 GIA units/ml
Method: (§2) The ability of PBL-derived Oncostatin M to affect replication of a variety of cells was also investigated. Mouse L929 cells were insenstive to PBL-derived Oncostatin M using up to 1000 GIA units/ml. Growth of human fibroblasts, WI26, was stimulated by treatment with 1000 GIA units/ml. Normal human T-lymphocyte proliferation at 72 hours post mitogenesis was not affected by up to 500 GIA units/ml.

[2] = tested on: Normal human T-lymphocyte; test: Normal human T-lymphocyte proliferation post mitogenesis; format: cell-based; settings: 72 hours post mitogenesis, up to 500 GIA units/ml
Method: as §2

Row | Molecule | Observed % Inhibition of 3H-TdR Incorporation (A375 melanoma cells) | Observed % Inhibition of 3H-TdR Incorporation (MCF-7 breast tumor cells) | Inhibitory activity towards binding of 125I-Oncostatin M [1] | Growth of human fibroblasts WI26 (WI26 fibroblasts) | Replication of mouse L929 cells (Mouse L929 cells) | Normal human T-lymphocyte proliferation [2]
1 | TNF-α | 7% | 30% | None of these showed significant inhibitory activity |  |  | 
2 | B1 |  |  |  | stimulated | insenstive | not affected
